In one data set the test system is melanin content of cells. Description: Melanin content assay. Type of data set: cell-based. To be noted: for % Inhibition in Melanin Content: 72 hours incubation. The protocol: In this Example, cells were grown for 24 hours and treated with bioactives and incubated for 72 hours. Post treatment, the cells were lysed and absorbance measured at 405 nm. The lysate was transferred to a fresh 384-well clear flat bottom plate and an […] was measured at 405 nm using a FlexStation 3 reader. (% reduction in melanin content was measured by taking the mean absorbance value of the control−the mean absorbance value of the treated cells/the mean absorbance value of the control)*100

Data set [1] in a line: Water solubility in sensory oil (solvency of the oil for water). Type of data set: physicochemical. To be noted: yes/no. From the text:
(§1) A sensory oil can be used in the antibacterial composition to assist in leaving the user with a non-tacky feeling to the skin after application of the composition. The antibacterial composition comprises a sensory oil in an amount of 0.01 to 10% by weight, preferably 0.5 to 5% by weight including all values and ranges subsumed therein. The sensory oil can comprise a soluble sensory oil. Sensory oils desirable for use in the antibacterial composition disclosed herein must meet the following criteria: the sensory oil must be liquid, the sensory oil must be soluble in at least a 75/25 or higher ratio of EtOH/Water which is to be reflective of solubility in the final composition to give a clear final antibacterial composition, and the sensory oil must have no solvency for water.
(§2) The examples are not meant to limit the materials that can be used but merely to illustrate oil type and level selected based on three criteria. […] Finally, the preferred oil must itself not have solvency for water such that during application and on drying as the ethanol and water evaporate, the water is also allowed to quickly evaporate leaving behind only the oil and any skin benefit actives/moisturizers if present.

Data set [2] can be described thus: Solubility of sensory oil in 75/25 EtOH/Water blend. The data set is classed as physicochemical.
Description: as §1, §2

In the next data set the test system is cells. Description: Wound healing (scratch closure) assay. The data set is classed as cell-based. Conditions: 24 hours after scratch. As to the method: In this example, various combinations of benefit agents were tested for resilience wound healing and barrier repair. For wound healing assessments, cells were grown to 80% confluency and treated with bioactives for 24 to 36 hours. Post treatment, a scratch was created on the cell and closure of the wound was monitored after 24 hours of incubation. Closure of the scratch area was calculated as a % closure of the wound. Microscopic images were captured at a magnification of 4× and the open wound area measurements were analyzed using the software CellSens. Wound closure in percentage=(mean of the readings of the open wound area at (t=24)−mean of the readings of the open wound area at (t=0)/mean of the readings at (t=0))*100.

The inhibition is the relative decrease from the control value, in per cent. Turning to `CCCCCCc1ccc(O)cc1O` [4-Hexyl resorcinol, reference compound], the inhibition at 10 µM with melanin content of cells (10 micromolar, read-out: % inhibition in melanin content (benchmark)) is about 33%.

For `CCCCC(CC)COC(=O)CC(O)C(=O)OCC(CC)CCCC` (centres unmarked) [Diethyl hexyl malate], the “Water solubility in sensory oil” value in data set [1] is “No”. The “Solubility in 75/25 EtOH/Water” value in data set [2] was over 30%.

Regarding `CCCCC(CC)COC(=O)CCCCCCCCC(=O)OCC(CC)CCCC` (centres unmarked) [Diethyl hexyl sebacate], the “Water solubility in sensory oil” value in data set [1] is recorded as “No”. Besides, the “Solubility in 75/25 EtOH/Water” value in data set [2] is on record as under 10%.

Take `CCCCC(CC)COC(=O)CCCCC(=O)OCC(CC)CCCC` (centres unmarked) [Diethylhexyl adipate]: the “Water solubility in sensory oil” value in data set [1] was “No”. The “Solubility in 75/25 EtOH/Water” value in data set [2] is under 10%.

Regarding `CC(C)OC(=O)CCCCC(=O)OC(C)C` [Disopropyl adipate], the “Water solubility in sensory oil” value in data set [1] was “No”. In addition, the “Solubility in 75/25 EtOH/Water” value in data set [2] is over 30%.

As to `CCCCCCCCCCCCOC(=O)C(C)O` (centres unmarked) [Lauryl lactate], the “Water solubility in sensory oil” value in data set [1] is listed as “No”. The “Solubility in 75/25 EtOH/Water” value in data set [2] is over 30%.

In the case of `NC(=O)c1cccnc1` [Vitamin B3, niacinamide], in the data set with cells (0.2%), the “% Closure in Scratch Area” value turned out to be 30%. In the data set on melanin content of cells (0.2%), the “% Inhibition in Melanin Content” value amounted to 7.47%.

Regarding Dicapryl maleate, the “Water solubility in sensory oil” value in data set [1] is “No”. Besides, the “Solubility in 75/25 EtOH/Water” value in data set [2] is given as under 10%.

As for Glyceryl Monoleate, the “Water solubility in sensory oil” value in data set [1] was “yes”. Further, in data set [2], the “Solubility in 75/25 EtOH/Water” value was over 30%.

Isocetyl alcohol: in data set [1], the “Water solubility in sensory oil” value was “No”. Besides, the “Solubility in 75/25 EtOH/Water” value in data set [2] is listed as under 10%.

Regarding PPG-2 Isoceteth-20 Acetate, in data set [1], the “Water solubility in sensory oil” value is “no”. In addition, the “Solubility in 75/25 EtOH/Water” value in data set [2] is listed as over 30%.

As for PPG-2-Isoceteth-2, the “Water solubility in sensory oil” value in data set [1] was “Yes”. Further, in data set [2], the “Solubility in 75/25 EtOH/Water” value was over 30%.

In the case of Sodium Hyaluronate, the “% Closure in Scratch Area” value with cells (0.001%) is given as 51%. Also, in the data set on melanin content of cells (0.001%), the “% Inhibition in Melanin Content” value is 9.09%.

For tocopherol [Vitamin E], the “% Closure in Scratch Area” value came out at 32% with cells (0.001%) and 48% in the data set with cells (0.05%). In addition, the “% Inhibition in Melanin Content” value was 3.56% with melanin content of cells (0.001%) and 15.62% with melanin content of cells (0.05%).
